Earlier results, collected in patent US9259392B2, “Cochleate compositions directed against expression of proteins” (Rutgers, The State University of New Jersey, priority 2003, dated 2016).

Legend:
pathogenic fungi = conditions: cited from earlier work
[1] = biological target: Aspergillus fumigatus H^+-ATPase; conditions: cited from earlier work

CCN1CCC(O)(C=Cc2ccc(Cl)cc2)C(C(=O)C=Cc2ccc(Cl)cc2)C1.Cl (centres unmarked) [NC1175, 3-[3-(4-chlorophenyl)-2-propenoyl]-4-[2-(4-chlorophenyl)vinylene]-1-ethyl-4-piperidinol hydrochloride]
antifungal activity (pathogenic fungi): antifungal activity against a wide spectrum of pathogenic fungi

[O]=[V]([OH])([OH])[OH] [orthovanadate]
IC50 [1]: ~800 nM
